Experimental data as given in patent US6048715A, “Two-phase partition affinity separation system and affinity separated cell-containing composition” (priority 1996, dated 2000).

Molecular target: T1, CBDN1 (Cellulomonas fimi, UniProt P14090)
T1 construct: Cex leader peptide (secretion signal of the vector) (N); made in house; purified from the culture supernatant
T1 sequence (P14090 33-184): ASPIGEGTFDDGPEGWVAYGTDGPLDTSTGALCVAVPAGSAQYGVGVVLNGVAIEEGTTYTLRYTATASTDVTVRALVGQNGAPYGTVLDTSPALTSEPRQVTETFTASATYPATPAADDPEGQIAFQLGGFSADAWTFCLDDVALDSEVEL
Assay: Isothermal titration microcalorimetry of oligosaccharide binding
Settings: N1 binding, 35° C., Table 8
From the text: The PBP can be obtained following isolation and purification of the enzyme by clipping off the PBP from the remainder of the enzyme. For use in the phase separation system, the PBP is screened for binding to soluble phase-forming oligosaccharides. While any of a number of methods can be used for screening, including NMR alone, NMA/calorimetry, affinity electrophoresis alone, affinity electrophoresis/competition assay, and binding isotherms. Binding equilibrium studies using isothermal titration microcalorimetry (ITC) are preferred. The advantage of isothermal titration microcalorimetry […] in binding equilibrium studies derives from the fact that binding isotherms are defined by the experiment in terms of heats of reaction; as such, they allow a direct estimation of enthalpy (and entropy (changes in addition to the association constant. Thus, a single microcalorimetric titration provides a complete characterization of the binding energetics along with the binding isotherm. (Haynes et al., J. Colloid Interface Sci., (1994) 169:313; Colloids & Surfaces, (1994) 2:517.
Microcalorimetry was used to measure binding thermodynamics for CBDN1 to a wide range of water-soluble oligosaccharides with the aim of identifying a set of suitable ligands for the affinity partition system. […] For both oligosaccharides,CPDN1 binding is as tight or even tighter than nearly all PEG-based affinity ligands (e.g., Cibacron blue-PEG, Procion red-PEG, dinitrophenyl-PEG, diacetic acid-PEG) currently in use in affinity partition systems.

-TΔS^o [kcal/mol]	ΔH^o [kcal/mol]	Compound
0.79	-6.9 ± 0.2	OC[C@H]1O[C@@H](O[C@H]2[C@H](O)[C@@H](O)[C@H](O[C@H]3[C@H](O)[C@@H](O)[C@H](O[C@H]4[C@H](O)[C@@H](O)[C@H](O[C@H]5[C@H](O)[C@@H](O)[C@H](O[C@H]6[C@H](O)[C@@H](O)C(O)O[C@@H]6CO)O[C@@H]5CO)O[C@@H]4CO)O[C@@H]3CO)O[C@@H]2CO)[C@H](O)[C@@H](O)[C@@H]1O (stereo partly drawn) [Cellohexaose]
0.86	-6.8 ± 0.2	OC[C@H]1O[C@@H](O[C@H]2[C@H](O)[C@@H](O)[C@H](O[C@H]3[C@H](O)[C@@H](O)[C@H](O[C@H]4[C@H](O)[C@@H](O)[C@H](O[C@H]5[C@H](O)[C@@H](O)C(O)O[C@@H]5CO)O[C@@H]4CO)O[C@@H]3CO)O[C@@H]2CO)[C@H](O)[C@@H](O)[C@@H]1O (stereo partly drawn) [Cellopentaose]
1.4 ± 0.1	-6.4 ± 0.2	OC[C@H]1O[C@@H](O[C@H]2[C@H](O)[C@@H](O)[C@H](O[C@H]3[C@H](O)[C@@H](O)[C@H](O[C@H]4[C@H](O)[C@@H](O)C(O)O[C@@H]4CO)O[C@@H]3CO)O[C@@H]2CO)[C@H](O)[C@@H](O)[C@@H]1O (stereo partly drawn) [Cellotetraose]
